{"source": "patent US12053533B2", "about": "“Fluorescent probe for cyclooxygenase-2” (The Board of Trustees of the University of Illinois, priority 2020, dated 2024)", "key": {"[1]": {"system": "COX-2 activity in HEK 293T cells over-expressing human COX-2", "test": "Confocal live-cell imaging of human COX-2 transfected HEK 293T cells", "format": "cell-based", "details": "CoxFluor 10 μM", "experimental": "Prior to plating onto 4-well chambered cover glasses, the surface exposed substrate was coated with R&D Systems™ Cultrex Poly-L-Lysine (Fisher Scientific) according to the manufacturers protocol (allowed to dry>3 h). […] Transfections was performed using Lipofectamine 3000 (Thermo Fisher Scientific) according to the manufacturer's protocol. […] Media was removed from each well and replaced with 500 μL Opti-MEM™ Reduced Serum Media followed by the addition of 20 μL transfection master mix.\nTransfections were performed using the Lipofectamine 3000 reagent according to the aforementioned protocol. Control wells were treated the same as the transfected wells without the addition of the transfection master mix. […] Each well was imaged using a Zeiss LSM 700 confocal microscope (n=3 technical replicates; n=4 biological replicates). For GSH knockdown experiments, the initial media change was performed with 1 mM NEM (0.1% DMSO final concentration) in serum-free DMEM media and the cells were allowed to incubate for 30 minutes before proceeding to the staining with CoxFluor. […] All images were processed using identical parameters and false colored (LUT: jet.lut) in ImageJ."}, "[2]": {"target": "T1, COX-1 isolated from bovine vesicles (Bos taurus, UniProt O62664)", "T1 construct": "COX-1 isolated from bovine vesicles; from tissue; host or cells: bovine vesicles", "T1 sequence (O62664 25-600)": "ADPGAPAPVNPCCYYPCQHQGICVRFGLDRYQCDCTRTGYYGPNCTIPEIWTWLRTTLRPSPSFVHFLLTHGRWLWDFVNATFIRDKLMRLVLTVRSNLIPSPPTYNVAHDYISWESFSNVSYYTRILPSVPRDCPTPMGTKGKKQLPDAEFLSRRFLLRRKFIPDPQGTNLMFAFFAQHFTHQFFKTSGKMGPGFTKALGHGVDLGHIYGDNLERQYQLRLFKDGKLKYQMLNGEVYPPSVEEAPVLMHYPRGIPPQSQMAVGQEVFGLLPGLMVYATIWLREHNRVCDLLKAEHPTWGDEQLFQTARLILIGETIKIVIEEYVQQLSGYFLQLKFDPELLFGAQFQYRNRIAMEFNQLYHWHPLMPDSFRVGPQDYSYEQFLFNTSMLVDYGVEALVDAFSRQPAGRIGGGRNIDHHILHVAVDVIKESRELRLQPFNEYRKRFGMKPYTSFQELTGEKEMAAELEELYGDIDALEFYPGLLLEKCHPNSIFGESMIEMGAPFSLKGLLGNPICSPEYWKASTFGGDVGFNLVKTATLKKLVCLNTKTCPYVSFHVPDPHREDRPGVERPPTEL", "test": "Isoform selectivity: CoxFluor incubated with COX-1", "format": "biochemical", "details": "even in the presence of 10-fold excess enzyme activity", "description": "Enzyme Selectivity. Enzyme activity was defined as the amount substrate (μmol) consumed during one minute by one milligram of enzyme in 100 mM Tris-HCl at pH 8.0 under saturating conditions. Enzyme concentrations were measured using the BCA assay (Thermo Fisher Scientific) according to the published protocol with bovine serum albumin for the standard curve. […] The oxygen electrode was calibrated using 1% sodium sulfite for 0% oxygen and atmosphere equilibrated 100 mM Tris-HCl at pH 8.0 for 100% oxygen. The reaction was monitored at 37° C. in a glass chamber with a total reaction volume of 1 mL. […] When measured, all enzyme activities were confirmed to be under saturating conditions and within the first 20% of the reaction. The selectivity of CoxFluor (10 μM) was monitored after incubation with either 0.101 U COX-2 or 1.01 U of the other enzymes, unless noted otherwise above, in 100 mM Tris-HCl buffer at pH 8.0 using the plate reader with excitation at 540 nm and emission at 590 nm. Total reaction volume was maintained at 95 μL with a final DMSO concentration of 1.26% (v/v)."}}, "note": "“Also recorded” adds a separate entry of the source.", "data": [{"smiles": "CCCCC/C=C\\C/C=C\\C/C=C\\C/C=C\\CCCC(=O)N1c2ccc(O)cc2Oc2cc(O)ccc21", "note": "[CoxFluor]", "values": [{"measurement": "fluorescence increase for transfected cells compared to the control", "setting": "[1]; 3 h, N-ethylmaleimide glutathione depletion", "value": 1.2, "unit": "fold"}, {"measurement": "fluorescence enhancement for the control relative to indomethacin-treated transfected cells", "setting": "[1]; 4.5 h", "value": 1.2, "unit": "fold"}, {"measurement": "fluorescent enhancement with COX-1", "setting": "[2]", "value": "not observed; also recorded: No fluorescent enhancement was observed"}]}]}
